Source: patent US8937072B2, “Substituted cyanoaniline compounds, preparation and use thereof” (Sinochem Corporation, priority 2011, dated 2015)
Read-outs that look alike come from different tables or passages of the source.

Tests used:
[1] = test system: cucumber gray mold; assay: Activity in vitro (96-well, High Through Put): inhibition rate against cucumber gray mold; assay type: cell-based; details: for inhibition rate against cucumber gray mold: dose 0.9 mg/L; for inhibition at 0.3 µg/mL: 0.3 mg/L; for inhibition at 0.9 µg/mL: 0.9 mg/L; for inhibition at 8.3 µg/mL: 8.3 mg/L; for inhibition at 25 µg/mL: dose 25 mg/L
Method: The method is as followed: High Through Put is used in the test. The compound is dissolved in a proper solvent to become a testing solution whose concentration is designed. The solvent is selected from acetone, methanol, DMF and so on according to their dissolving capability to the sample. In a no animalcule condition, the testing solution and pathogens suspension are added into the cells of 96 cells culture board, which then should be placed in the constant temperature box. 24 hours later, pathogen germination or growth can be investigated by eyeballing, and the activity in vitro of the compound is evaluated based on germination or growth of control treatment.

[2] = test system: cucumber downy mildew; assay: Protectant activity in vivo (whole plant) against cucumber downy mildew; details: for pest or weed control at 25 µg/mL / pest or weed control at 50 µg/mL / pest or weed control at 100 µg/mL / pest or weed control at 12.5 µg/mL / pest or weed control at 400 µg/mL: Cucumis sativus, 168 h; for pest or weed control at 12.5 µg/mL: 12.5 mg/L
Method: (§1) The method is as followed: The whole plant is used in this test. The compound is dissolved in a proper solvent to get mother solution. The proper solvent is selected from acetone, methanol, DMF and so on according to their dissolving capability to the sample. The volume rate of solvent and testing solution (v/v) is equal to or less than 5%. The mother solution is diluted with water containing 0.1% tween-80 to get the testing solution whose concentration is designed. The testing solution is sprayed to the host plant by a special plant sprayer. The plant is inoculated with fungus after 24 hours. According to the infecting characteristic of fungus, the plant is stored in a humidity chamber and then transferred into greenhouse after infection is finished. And the other plants are placed in greenhouse directly. The activity of compound is obtained by eyeballing after 7 days in common.

[3] = test system: corn rust; assay: Protectant activity in vivo (whole plant) against corn rust; details: for pest or weed control at 6.25 µg/mL / pest or weed control at 25 µg/mL / pest or weed control at 100 µg/mL / pest or weed control at 400 µg/mL: Zea mays, 168 h
Method: as §1

[4] = read-out: the inhibition rate against cucumber gray mold (%)
[5] = 2.8 mg/L, read-out: the inhibition rate against cucumber gray mold (%)
[6] = 25 mg/L, read-out: the protectant activity (%) against cucumber downy mildew
[7] = 50 mg/L, read-out: the protectant activity (%) against cucumber downy mildew
[8] = 100 mg/L, read-out: the protectant activity (%) against cucumber downy mildew
[9] = dose 50 mg/L, read-out: protectant activity against cucumber downy mildew in vivo
[10] = 400 mg/L, read-out: the protectant activity (%) against corn rust
[11] = dose 400 mg/L, read-out: protectant activity against corn rust in vivo

N#Cc1c(Cl)c(Cl)c(C#N)c(Nc2ccc([N+](=O)[O-])cc2F)c1Cl [Compound C-27]
80%: inhibition rate against cucumber gray mold ([1]; in vitro)
100%: protectant activity against cucumber downy mildew in vivo ([2]; dose 25 mg/L) | protectant activity against cucumber downy mildew in vivo ([2]; dose 50 mg/L) | protectant activity against cucumber downy mildew in vivo ([2]; dose 100 mg/L) | protectant activity against cucumber downy mildew in vivo ([2]; dose 400 mg/L)

N#Cc1c(Cl)c(Cl)c(C#N)c(Nc2ccc(Cl)cc2[N+](=O)[O-])c1Cl [Compound C-33]
100%: protectant activity against cucumber downy mildew in vivo ([2]; dose 400 mg/L) | protectant activity against corn rust in vivo ([3]; dose 400 mg/L)

N#Cc1c(Cl)c(Cl)c(C#N)c(Nc2c(Cl)cc([N+](=O)[O-])cc2Cl)c1Cl [Compound C-40]
100%: protectant activity against cucumber downy mildew in vivo ([2]; dose 25 mg/L) | protectant activity against cucumber downy mildew in vivo ([2]; dose 50 mg/L) | protectant activity against cucumber downy mildew in vivo ([2]; dose 100 mg/L) | protectant activity against cucumber downy mildew in vivo ([2]; dose 400 mg/L) | the protectant activity (%) against corn rust ([3]; 100 mg/L) | the protectant activity (%) against corn rust ([3]; 400 mg/L) | protectant activity against corn rust in vivo ([3]; dose 100 mg/L)
80%: the protectant activity (%) against corn rust ([3]; 25 mg/L)
30%: the protectant activity (%) against corn rust ([3]; 6.25 mg/L)

N#Cc1c(F)c(F)c(C#N)c(Nc2ccc(Cl)cc2Cl)c1F [Compound C-71]
80%: inhibition rate against cucumber gray mold ([1]; in vitro)

N#Cc1c(F)c(F)c(C#N)c(Nc2c(Cl)cncc2Cl)c1F [Compound C-125]
100%: protectant activity against corn rust in vivo ([3]; dose 400 mg/L)

Cc1ccc(Nc2c(F)c(F)c(C#N)c(F)c2C#N)cc1 [KC9]
20%: pest or weed control at 25 µg/mL [2, 6] | pest or weed control at 25 µg/mL ([2]; dose 25 mg/L, read-out: protectant activity against cucumber downy mildew in vivo)
80%: inhibition at 8.3 µg/mL [1, 4]
65%: pest or weed control at 100 µg/mL [2, 8]
0%: inhibition at 0.3 µg/mL [1] | inhibition at 0.9 µg/mL [1, 4] | inhibition at 2.8 µg/mL [1, 5] | inhibition at 2.8 µg/mL ([1]; in vitro, dose 2.8 mg/L, read-out: inhibition rate against cucumber gray mold)
30%: pest or weed control at 50 µg/mL [2, 7] | pest or weed control at 50 µg/mL [2, 9]

N#Cc1c(F)c(F)c(C#N)c(Nc2ccc(O)cc2)c1F [KC16]
0%: pest or weed control at 12.5 µg/mL [2] | pest or weed control at 25 µg/mL [2, 6] | pest or weed control at 50 µg/mL [2, 7] | pest or weed control at 50 µg/mL [2, 9] | pest or weed control at 6.25 µg/mL ([3]; 6.25 mg/L) | pest or weed control at 25 µg/mL ([3]; 25 mg/L) | pest or weed control at 100 µg/mL ([3]; 100 mg/L) | pest or weed control at 400 µg/mL [3, 10] | pest or weed control at 400 µg/mL [3, 11]
20%: pest or weed control at 100 µg/mL [2, 8] | pest or weed control at 100 µg/mL ([2]; dose 100 mg/L, read-out: protectant activity against cucumber downy mildew in vivo)

N#Cc1c(F)c(Cl)c(Nc2ccccc2)c(C#N)c1F [KC17]
0%: pest or weed control at 12.5 µg/mL [2] | pest or weed control at 25 µg/mL [2, 6] | pest or weed control at 50 µg/mL [2, 7] | pest or weed control at 100 µg/mL [2, 8] | pest or weed control at 400 µg/mL ([2]; dose 400 mg/L) | pest or weed control at 6.25 µg/mL ([3]; 6.25 mg/L) | pest or weed control at 25 µg/mL ([3]; 25 mg/L) | pest or weed control at 100 µg/mL ([3]; 100 mg/L) | pest or weed control at 400 µg/mL [3, 10] | pest or weed control at 400 µg/mL [3, 11]

N#Cc1c(F)c(Cl)c(Nc2ccc(Cl)cc2)c(C#N)c1F [KC18]
0%: pest or weed control at 6.25 µg/mL ([3]; 6.25 mg/L) | pest or weed control at 25 µg/mL ([3]; 25 mg/L) | pest or weed control at 100 µg/mL ([3]; 100 mg/L) | pest or weed control at 400 µg/mL [3, 10] | pest or weed control at 400 µg/mL [3, 11]

Cc1ccc(Nc2c(Cl)c(F)c(C#N)c(F)c2C#N)cc1 [KC19]
0%: inhibition at 0.3 µg/mL [1] | inhibition at 0.9 µg/mL [1, 4] | inhibition at 2.8 µg/mL [1, 5] | inhibition at 8.3 µg/mL [1, 4] | inhibition at 25 µg/mL ([1]; in vitro) | pest or weed control at 6.25 µg/mL ([3]; 6.25 mg/L) | pest or weed control at 25 µg/mL ([3]; 25 mg/L) | pest or weed control at 100 µg/mL ([3]; 100 mg/L) | pest or weed control at 400 µg/mL [3, 10] | pest or weed control at 400 µg/mL [3, 11]

CN(C)c1ccc(Nc2c(F)c(F)c(C#N)c(F)c2C#N)cc1 [KC24]
0%: inhibition at 0.3 µg/mL [1] | inhibition at 0.9 µg/mL [1, 4] | inhibition at 2.8 µg/mL [1, 5] | inhibition at 8.3 µg/mL [1, 4] | inhibition at 25 µg/mL ([1]; in vitro) | pest or weed control at 12.5 µg/mL [2] | pest or weed control at 25 µg/mL [2, 6] | pest or weed control at 50 µg/mL [2, 7] | pest or weed control at 100 µg/mL [2, 8] | pest or weed control at 400 µg/mL ([2]; dose 400 mg/L) | pest or weed control at 6.25 µg/mL ([3]; 6.25 mg/L) | pest or weed control at 25 µg/mL ([3]; 25 mg/L) | pest or weed control at 100 µg/mL ([3]; 100 mg/L) | pest or weed control at 400 µg/mL [3, 10] | pest or weed control at 400 µg/mL [3, 11]
